Test results taken from patent publication US5258515A, “Aqueous solutions of sodium salts of trimercapto-s-triazine, their preparation and use” (Degussa Aktiengesellschaft, priority 1989, dated 1993).
Where a name gives a salt, the structure may show the parent alone. Read-outs that look alike come from different tables or passages of the source. One block for each compound: values may come before it.

Key:
[1] = Solubility / saturation concentration of TMT-Na salts and salt mixtures in water; format: physicochemical
[2] = Titration curve of TMT-H3; format: physicochemical
Text: In the sequence named, the jump are to be associated with the salts TMT-Na, TMT-Na2 and TMT-Na3.

[3] = Solubility / saturation concentration of TMT-Na salts and salt mixtures in water; format: physicochemical; conditions: for solubility in water: temperature not given; for Solubility of the TMT-Na salt/-salt mixture / solubility: water; for solubility: read-out: saturation concentration of TMT-Na3 in water
Text: That is, in each case, more than 2 hydrogen atoms of the TMT-H3 are replaced.

[4] = disclosure of DE-AS 22 40 549; cited from earlier work
[5] = Stability in storage of aqueous solutions (crystallization); format: physicochemical; conditions: in words
Method: Aqueous solutions of TMT-Na3 are commercially available and are used for separating heavy metal from the flue gas wash water of garbage incinerators, waste water in the mining industry and in galvanotechnical and chemical plants. The commercially available, aqueous TMT-NA3 solution has a concentration of 15% by weight (Publication TMT 15 of the Degussa company, 3/1986). The saturation concentration of TMT-Na3 in water is approximately 16% by weight at 0° C. and approximately 25% by weight at 20° C. […] Such a crystallization makes it considerably more difficult to handle the product. If heat-insulated or heated transport and storage containers were used, TMT-Na3 solutions with a higher concentration could be considered as a commercially supplied form of this product; however, this would make the product and its use more expensive.
The object of the present invention is to provide aqueous solutions of sodium salts of trimercapto-s-triazine which have a higher concentration of active substance than current commercially available solutions. Increasing the concentration makes possible a reduction in transportation and storage costs. The solutions should be stable in storage, that is, no crystallization of the active substance or of its salt should occur during storage. […]

Compound: Sc1nc(S)nc(S)n1 [TMT-Na2.6 H2 0, hexahydrate of trimercapto-s-triazine disodium salt]
solubility in water (in words) ([1]; in words, disodium salt): extraordinarily high solubility in water

Compound: Sc1nc(S)nc(S)n1 [TMT-H3, Trimercapto-s-triazine]
first jump of the titration curve ([2]; associated with TMT-Na): around 7 pH
second jump of the titration curve ([2]; associated with TMT-Na2): around 10.5 pH
third jump of the titration curve ([2]; associated with TMT-Na3): around 12.5 pH
solubility in water (in words) ([3]; in words): practically insoluble in water
solubility in water [3]: less than 0.5 % by weight

Compound: Sc1nc(S)nc(S)n1 [TMT-Na2, disodium salt of trimercapto-s-triazine]
solubility in water (in words) ([3]; in words): unusually high water solubility
solubility relative to that of TMT-Na3 ([3]; in words, comparison with TMT-Na3): considerably above that of the readily soluble TMT-Na3

The next lines start with results.

precipitation from solution ([1]; less than 2 hydrogen atoms of trimercapto-s-triazine replaced by Na ions): precipitates
solubility in water (in words) ([3]; in words): slightly soluble in water
solubility in water [3]: approximately 3 % by weight
Compound: Sc1nc(S)nc(S)n1 [TMT-Na, monosodium salt of trimercapto-s-triazine]
solubility in water [4]: approximately 3 % by weight

Solubility of the TMT-Na salt/-salt mixture ([3]; 0° C.): 0.78 mole TMT salt/1 H2 O
Solubility of the TMT-Na salt/-salt mixture ([3]; 20° C.): 1.37 mole TMT salt/1 H2 O
solubility in water (in words) ([3]; in words): good solubility
solubility ([3]; 0° C.): ~160 mg/mL
solubility ([3]; 20° C.): ~250 mg/mL
Compound: Sc1nc(S)nc(S)n1.[Na].[Na].[Na] [TMT-Na3, trimercapto-s-triazine trisodium salt]
stability in storage (crystallization) [5]: crystallizes if the concentration is higher
solubility of TMT-Na3 ([3]; 0° C.): approximately 0.78 mole TMT-Na3 per liter of H2 0
solubility of TMT-Na3 ([3]; 20° C.): approximately 1.37 mole TMT-Na3 per liter of H2 0
